Experiments:
AtIAA5 (AT1G15580) = assay: qRT-PCR of early auxin-responsive gene AtIAA5 (Experiment 9); format: in vivo, A. thaliana; settings: 5 and 10 μM TAA
Protocol: (§1) To analyze TAA responsive genes in Arabidopsis, WT Arabidopsis seeds were germinated as described and 14-day-old uniform-looking seedlings were initially acclimatized in liquid germination medium for 2 hours before transferring to medium containing different concentrations of TAA (5 and 10 μM). Seedlings in media supplemented with DMSO were used as control. Five random seedlings were selected and considered as one sample and three samples from both control and treatments were flash frozen in liquid nitrogen and total RNA was isolated using a TRIzol reagent (ThermoFisher Scientific, Cat #15596026).
(§2) Expression levels of seven previously reported early auxin-responsive genes were verified by qRT-PCR (quantitative reverse transcription polymerase chain reaction). RNA reverse transcription was performed using QuantiTect Reverse Transcription Kit (Qiagen). Three biological replicates and three technical replicates were used for all qRT-PCRs. Arabidopsis actin gene (AT3G18780) was used as internal reference.

AtIAA29 (AT4G32280) = assay: qRT-PCR of early auxin-responsive gene AtIAA29 (Experiment 9); format: in vivo, A. thaliana; settings: 5 and 10 μM TAA
Protocol: as §1, §2

WT Arabidopsis seedlings = assay: Root growth of WT Arabidopsis seedlings (Experiment 6); format: in vivo, A. thaliana
Protocol: (§3) Arabidopsis Columbia-0 wild type (WT) was used for assessing the effect of TAA on root growth and its effects on the expression of auxin-responsive genes. Seeds of A. thaliana were surface sterilized by suspending in 70% ethanol for 1 minute, followed by treatment with 10% bleach for 20 minutes. After thorough washing with sterile distilled water, the sterilized seeds were plated onto germination medium (half-strength Murashige and Skoog basal medium with vitamins (1/2 MS) medium supplemented with 1% sucrose and 0.7% plant agar) for germination. Germination was initiated by incubating the seeds in darkness at 5° C. for 2 days, followed by transfer to a light environment at 22° C. with a photoperiod of 16-h light/8-h dark for further growth. Stock solutions of TAA were prepared in DMSO (dimethyl sulfoxide). In control treatments, DMSO was used in equal amounts as present in the greatest concentration of TAA tested.
To analyze the effect of TAA on root growth, WT Arabidopsis seedlings were germinated as described and uniform-looking 8-day-old seedlings were transferred to germination medium supplemented with different concentrations of TAA (0.1, 1, 2, 5, 10, 25, 50, and 100 μM) or NAA/IAA/IBA (0.05, 0.1, 1, 2 and 5 μM). For IBA, two additional concentrations (10 and 25 μM) were also analyzed. Seedlings grown on media supplemented with an equal volume of DMSO were used as control. The seedlings were allowed to grow for 6 days and the plates were photographed at 24 h intervals. Primary root length was measured using Image J software. The difference in the number of lateral roots (LR) and root hairs was visually observed. Microscopic images were taken on a Leica Thunder Imager System (Leica Microsystems Ltd., Switzerland) and the images were processed with LAS X software.

AtIAA19 (AT3G15540) = assay: qRT-PCR of early auxin-responsive gene AtIAA19 (Experiment 9); format: in vivo, A. thaliana; settings: 5 and 10 μM TAA
Protocol: as §1, §2

AtARF19, AT1G19220 = assay: qRT-PCR of early auxin-responsive gene AtARF19 (Experiment 9); format: in vivo, A. thaliana; settings: 5 and 10 μM TAA, both time points
Protocol: as §1, §2

tobacco leaf explants = assay: Shoot organogenesis from tobacco leaf explants in vitro (Experiment 4); format: cell-based, Nicotiana tabacum L. cv. Petit Havana SRI; settings: 8 weeks
WT A. thaliana seedlings = assay: Root gravitropism of WT Arabidopsis seedlings (Experiment 8); format: in vivo
Protocol: as §3
To analyze the effect of TAA on gravitropism, WT A. thaliana seeds were cultured on 1/2 MS medium for 8 days. Uniform seedlings were then selected and vertically grown in germination medium supplemented with different concentrations of TAA (1, 2, 5, 10, and 25 μM) for 24 h. Seedlings grown on media supplemented with DMSO were used as control. The plates were then rotated clockwise 90° to make the root parallel to the ground. The seedlings were allowed to grow for 73 h and the plates were photographed at different intervals. Image J software was used to measure the curvature of 16 plants each in the control and treatment groups.

[1] = test system: auxin-response promoter DR5
Protocol: Artificial auxin-response promoter DR5 that contains a minimal 35S promoter fused to 9 repeats of an AuxRE with strict auxin specificity and responsive to only active auxins is used to indirectly visualize auxin in plants.
To further analyze the ability of TAA to induce an auxin response in tobacco, seedlings from transgenic tobacco plants expressing reporter gene RFP (red fluorescent protein gene) under the control of DR5 promoter were treated with different concentrations of TAA and compared the pattern of RFP fluorescence to that generated by equimolar concentration of other reported auxins over time.
Induction of an auxin response by TAA was analyzed by detecting the expression of fluorescent reporter gene under the control of auxin response elements (AuxRE) in transgenic tobacco. Plant transformation vector DR5rev::erRFP carrying DsRED reporter gene under an auxin-responsive promoter was obtained from addgene (www.addgene.org, plasmid ID. 61011). The plasmid was introduced into the Agrobacterium strain LBA4404, using freeze-thaw transformation. Transgenic plants were selected on a medium containing 25 mg/L hygromycin and then verified by PCR (polymerase chain reaction). The rooted plants were grown in soil and PCR positive tobacco seedlings were used in further experiments.

## O=C(O)Cc1ccsc1 [TAA]
AtIAA5 (AT1G15580)
  AtIAA5 expression: induction
AtIAA29 (AT4G32280)
  AtIAA29 expression: induction
WT Arabidopsis seedlings; 50 μM, after 6 days of treatment, 8-day-old seedlings
  length of the primary root relative to control: 50%
WT Arabidopsis seedlings; higher concentrations (5 μM and above)
  number and elongation of lateral roots (LR): reduced the number of LR and inhibited the elongation of LR
WT Arabidopsis seedlings; low concentration range (FIG. 8a)
  effect on primary root length: promoter role
WT Arabidopsis seedlings; lower concentrations of TAA
  number of lateral roots (LR): increased
AtIAA19 (AT3G15540)
  AtIAA19 expression: induction
AtARF19, AT1G19220
  AtARF19 expression: upregulation
Tobacco leaf explants; 1 mg/L TAA with 2 mg/L kinetin
  number of shoots regenerated per explant versus basic shoot regeneration media: 3 times
  total number of shoots regenerated versus basic shoot regeneration media: 3 times
Tobacco leaf explants; 2 mg/L TAA with 2 mg/L kinetin
  number of shoots regenerated per explant versus basic shoot regeneration media: 3 times
  total number of shoots regenerated versus basic shoot regeneration media: 3 times
Tobacco leaf explants; 3 mg/L TAA with 2 mg/L kinetin
  number of regenerated shoots versus basic shoot regeneration media: more than double
Tobacco leaf explants; 5 mg/L TAA with 2 mg/L kinetin
  number of regenerated shoots versus basic shoot regeneration media: more than double
Tobacco leaf explants; TAA added to 3% MS + 2 mg/L kinetin
  effect on shoot regeneration and size of regenerated shoots: positive effect
WT A. thaliana seedlings; 50 h after treatment (FIG. 8b)
  growth angle of primary roots: ~90 °
WT A. thaliana seedlings; higher concentrations (5, 10 and 25 μM)
  growth angle of primary roots: did not show a marked change in growth angle
WT A. thaliana seedlings; lower concentrations (1 and 2 μM), plates rotated 90°
  rate of gravitropic response: enhanced the rate of gravitropic response
[1]; 48 h after TAA withdrawal
  RFP after short-term treatment and withdrawal: detectable in roots even after 48 h of TAA withdrawal
[1]; all concentrations of TAA analyzed
  time to auxin reporter gene expression in primary root tips: ≤ 30 min
[1]; by 48 h of treatment
  spread of RFP fluorescence: RFP signal was observable in secondary roots
[1]; dose dependence
  RFP signal at the root tip with increasing TAA concentrations: gradually increased

Source: patent US20250072423A1, “THIOPHENE ACETIC ACID FOR PLANT GROWTH REGULATION” (priority 2023, published 2025)
